# Results taken from BindingDB's records for patent US20250051319 (Augustine Therapeutics, 2025).
# What was measured:
# [1] = molecular target: T1, Histone deacetylase 6 [482-800] (Homo sapiens, UniProt Q9UBN7); experiment: Cellular Target Engagement Assay
# T1 construct: 482-800
# T1 sequence (Q9UBN7 whole entry): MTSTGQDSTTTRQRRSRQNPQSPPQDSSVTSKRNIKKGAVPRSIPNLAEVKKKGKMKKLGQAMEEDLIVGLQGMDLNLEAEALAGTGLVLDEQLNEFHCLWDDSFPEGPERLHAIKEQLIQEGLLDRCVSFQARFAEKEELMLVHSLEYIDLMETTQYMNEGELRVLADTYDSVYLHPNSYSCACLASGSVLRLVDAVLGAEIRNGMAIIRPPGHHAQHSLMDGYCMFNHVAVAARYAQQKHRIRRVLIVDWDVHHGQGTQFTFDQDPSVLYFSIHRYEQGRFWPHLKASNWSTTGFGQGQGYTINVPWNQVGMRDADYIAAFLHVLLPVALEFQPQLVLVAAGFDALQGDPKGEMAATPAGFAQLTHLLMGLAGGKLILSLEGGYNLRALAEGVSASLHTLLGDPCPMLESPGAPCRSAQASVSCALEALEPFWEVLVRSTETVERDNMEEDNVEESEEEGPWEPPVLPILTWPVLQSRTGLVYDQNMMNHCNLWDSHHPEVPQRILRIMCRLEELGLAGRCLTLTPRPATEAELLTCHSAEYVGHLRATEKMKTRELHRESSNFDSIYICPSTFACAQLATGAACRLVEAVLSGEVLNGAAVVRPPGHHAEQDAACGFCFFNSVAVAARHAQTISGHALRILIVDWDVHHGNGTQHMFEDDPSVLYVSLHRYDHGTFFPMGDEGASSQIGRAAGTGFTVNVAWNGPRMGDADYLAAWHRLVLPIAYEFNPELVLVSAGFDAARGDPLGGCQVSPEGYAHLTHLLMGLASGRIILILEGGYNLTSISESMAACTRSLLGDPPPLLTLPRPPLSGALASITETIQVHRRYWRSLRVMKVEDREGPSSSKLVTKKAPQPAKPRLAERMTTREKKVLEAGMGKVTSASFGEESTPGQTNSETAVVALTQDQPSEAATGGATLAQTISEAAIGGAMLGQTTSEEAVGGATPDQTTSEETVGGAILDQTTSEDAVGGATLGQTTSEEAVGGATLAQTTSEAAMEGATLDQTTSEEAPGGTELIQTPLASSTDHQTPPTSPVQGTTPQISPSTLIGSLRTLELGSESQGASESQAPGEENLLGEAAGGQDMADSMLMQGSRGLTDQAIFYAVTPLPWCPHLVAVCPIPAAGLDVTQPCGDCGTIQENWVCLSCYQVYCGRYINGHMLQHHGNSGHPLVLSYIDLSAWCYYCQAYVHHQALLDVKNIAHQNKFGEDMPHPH
# Method: NanoBRET target engagement was performed against the catalytic domain 2 (CD2) of HDAC6, with minor modifications of kit manufacturer protocol (Promega). Expression of exogenous NanoLuc-HDAC6(CD2) fusion and in HEK293T was achieved following transient transfection with FuGENE HD Transfection Reagent (Promega). […] Compounds (dissolved in 100% DMSO) or DMSO (vehicle) were added either manually by diluting them in culture medium at 8× final assay concentration and then adding 5 μL to assay plate or in an automated way by adding 160 nL compound to 5 μL OptiMEM without phenol red (Gibco) using the Echo650 (Labcyte). Tracer solution was added to the cells before seeding 35 μL cell/tracer mixture in the assay plate. […] Assay plates were incubated at 37° C. in a humidified atmosphere containing 5% C02 for 2 hours. […] BRET ratios were calculated from acceptor/donor signal ratio (mBRET=acceptor/donor*1000) and normalized for each plate. Percentage inhibition was calculated by setting the mBRET obtained with cells without tracer to 100%, while the mBRET obtained with uninhibited cells with tracer was set to 0%. IC50-values were calculated from the percentage inhibition with the log(inhibitor) vs. response—Variable slope (four parameters) nonlinear regression in GraphPad Prism software.
# [2] = molecular target: T2, Histone deacetylase 6 (Homo sapiens, UniProt Q9UBN7); experiment: HDAC6 Enzymatic Activity Assay
# T2 sequence (Q9UBN7 whole entry): T1 sequence (Q9UBN7 whole entry)
# Method: Dose response testing of HDAC6 and HDAC 1 were run at Reaction Biology Corporation (RBC). […] 2× enzyme was delivered in the wells of the reaction plate except for the “no enzyme” control wells. In the latter, buffer was added. Compounds in 100% DMSO were delved into the enzyme mixture by acoustic technology (Echo550). Plates are spun down and compounds were incubation with the enzyme for 10 min at room temperature. […] Developer containing Trichostatin A was added to stop the reaction and generate fluorescent color. A kinetic measurement was carried out for 20 min with 5 min interval on the Envision plate reader (Perkin Elmer, Ex/Em=360/460). End point reading i.e., plateau of the development reaction was used for analysis. Data was reported by RBC as percentage enzyme activity. Percentage inhibition was calculated by subtracting percentage enzyme activity from 100. IC50 values were calculated using GraphPad Prism 9 based on the log(inhibitor) vs. response—Variable slope (four parameters) equation.
IC50 [1] [µM],IC50 [2] [µM],SMILES
< 0.1,–,"O=C(CSc1nc(C(F)(F)F)nc2ncccc12)c1ccc(CN2CC[C@@H](O)C2=O)s1 [US20250051319, Compound 155]"
–,< 0.1,"COCC(=O)NCc1ccc(C(=O)CSc2nc(C)nc3ncc(OC)cc23)s1 [US20250051319, Compound 163]"
